Laboratory results from patent US20230406865A1, “CRYSTAL FORM OF FREE BASE OF INHIBITOR CONTAINING BICYCLIC RING DERIVATIVE AND PREPARATION METHOD AND APPLICATION OF CRYSTAL FORM” (SHANGHAI HANSOH BIOMEDICAL CO., LTD., priority 2020, published 2023).

Experiments:
RET V804M = target: T1, RET V804M (Homo sapiens, UniProt P07949, V804M); test: HTRF kinase activity inhibition, RET V804M; assay type: biochemical; details: ATP at Km
T1 construct: purchased Thermofisher PV6223
Excerpt: (§1) 2.2 Experimental Reagents: • RET enzyme was purchased from Carna Company, and the article number was 08-159; • RET M918T enzyme was purchased from Carna Company, and the article number was 08-508; • KIF5B-RET was purchased from SignalChem Company, the article number was R02-19FG-05; • CCDC6-RET was purchased from SignalChem Company, the article number was R02-19BG-05; • RET V804M enzyme was purchased from Thermofisher Company, and the article number was PV6223; • RET V804L enzyme was purchased from Thermofisher Company, and the article number was PV4397; • HTRF KinEASE-TK kit was purchased from Cisbio Company, and the article number was 62TK0PEC; • ATP was purchased from Thermofisher Company, and the article number was PV3227; • 384-well plate was purchased from PerkinElmer Company, and the article number was 6007290.
(§2) In this experiment, a homogeneous time-resolved fluorescence (HTRF) method was used for the detection of compounds on RET kinase activity.

RET V804L = target: T2, RET V804L (Homo sapiens, UniProt P07949, V804L); test: HTRF kinase activity inhibition, RET V804L; assay type: biochemical; details: ATP at Km
T2 construct: purchased Thermofisher PV4397
T2 sequence (P07949 29-1114 V804L): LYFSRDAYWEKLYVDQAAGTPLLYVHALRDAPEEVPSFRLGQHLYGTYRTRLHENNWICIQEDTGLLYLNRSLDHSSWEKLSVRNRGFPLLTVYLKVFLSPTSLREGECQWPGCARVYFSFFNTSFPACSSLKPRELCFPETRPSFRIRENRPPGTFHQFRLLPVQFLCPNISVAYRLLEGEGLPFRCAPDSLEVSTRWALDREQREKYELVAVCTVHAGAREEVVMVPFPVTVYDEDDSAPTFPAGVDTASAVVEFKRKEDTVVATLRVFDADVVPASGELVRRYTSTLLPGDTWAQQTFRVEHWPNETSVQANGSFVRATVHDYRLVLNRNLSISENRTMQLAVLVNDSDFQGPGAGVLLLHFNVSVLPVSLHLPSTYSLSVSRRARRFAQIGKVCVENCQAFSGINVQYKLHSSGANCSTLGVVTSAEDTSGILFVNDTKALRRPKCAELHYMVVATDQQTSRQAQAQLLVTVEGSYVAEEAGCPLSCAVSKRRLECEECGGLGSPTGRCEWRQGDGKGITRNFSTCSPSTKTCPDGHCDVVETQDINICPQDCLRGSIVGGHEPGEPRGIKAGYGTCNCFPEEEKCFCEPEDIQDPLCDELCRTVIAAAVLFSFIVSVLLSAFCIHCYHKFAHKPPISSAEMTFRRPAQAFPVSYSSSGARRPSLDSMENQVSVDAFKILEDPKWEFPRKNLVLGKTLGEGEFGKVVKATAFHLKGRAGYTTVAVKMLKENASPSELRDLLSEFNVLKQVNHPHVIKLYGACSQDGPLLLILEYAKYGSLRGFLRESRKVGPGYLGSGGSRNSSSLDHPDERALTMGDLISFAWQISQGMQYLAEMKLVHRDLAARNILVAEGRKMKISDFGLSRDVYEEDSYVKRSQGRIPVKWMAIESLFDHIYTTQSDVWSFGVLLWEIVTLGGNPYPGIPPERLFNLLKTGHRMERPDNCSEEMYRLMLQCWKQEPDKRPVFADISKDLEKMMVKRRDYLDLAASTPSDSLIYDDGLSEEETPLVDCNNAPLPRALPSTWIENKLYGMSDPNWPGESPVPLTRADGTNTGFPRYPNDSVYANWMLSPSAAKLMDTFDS
Excerpt: as §1, §2

RET kinase = target: T3, RET kinase (Homo sapiens, UniProt P07949); test: HTRF kinase activity inhibition, RET wild-type; assay type: biochemical; details: ATP at Km
T3 construct: purchased Carna 08-159
T3 sequence (P07949 29-1114): as the sequence (P07949 29-1114 V804L) above, with L776V counted along it
How it was run: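 HTRF (KinEASE-TK) kinase assay with recombinant RET wild-type, RET V804M, RET V804L and KIF5B-RET enzymes plus ATP.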

Ba/F3 KIF5B-RET cells = target: T4, Ba/F3 KIF5B-RET cells (Homo sapiens, UniProt P07949); test: Inhibition of proliferation of Ba/F3 KIF5B-RET cells (CellTiter-Glo); assay type: cell-based; details: 72 to 144 hours
T4 construct: fused on or other part: P33176 (Kinesin-1 heavy chain)
T4 sequence (P07949 whole entry, change not shown, the tested form may be a part): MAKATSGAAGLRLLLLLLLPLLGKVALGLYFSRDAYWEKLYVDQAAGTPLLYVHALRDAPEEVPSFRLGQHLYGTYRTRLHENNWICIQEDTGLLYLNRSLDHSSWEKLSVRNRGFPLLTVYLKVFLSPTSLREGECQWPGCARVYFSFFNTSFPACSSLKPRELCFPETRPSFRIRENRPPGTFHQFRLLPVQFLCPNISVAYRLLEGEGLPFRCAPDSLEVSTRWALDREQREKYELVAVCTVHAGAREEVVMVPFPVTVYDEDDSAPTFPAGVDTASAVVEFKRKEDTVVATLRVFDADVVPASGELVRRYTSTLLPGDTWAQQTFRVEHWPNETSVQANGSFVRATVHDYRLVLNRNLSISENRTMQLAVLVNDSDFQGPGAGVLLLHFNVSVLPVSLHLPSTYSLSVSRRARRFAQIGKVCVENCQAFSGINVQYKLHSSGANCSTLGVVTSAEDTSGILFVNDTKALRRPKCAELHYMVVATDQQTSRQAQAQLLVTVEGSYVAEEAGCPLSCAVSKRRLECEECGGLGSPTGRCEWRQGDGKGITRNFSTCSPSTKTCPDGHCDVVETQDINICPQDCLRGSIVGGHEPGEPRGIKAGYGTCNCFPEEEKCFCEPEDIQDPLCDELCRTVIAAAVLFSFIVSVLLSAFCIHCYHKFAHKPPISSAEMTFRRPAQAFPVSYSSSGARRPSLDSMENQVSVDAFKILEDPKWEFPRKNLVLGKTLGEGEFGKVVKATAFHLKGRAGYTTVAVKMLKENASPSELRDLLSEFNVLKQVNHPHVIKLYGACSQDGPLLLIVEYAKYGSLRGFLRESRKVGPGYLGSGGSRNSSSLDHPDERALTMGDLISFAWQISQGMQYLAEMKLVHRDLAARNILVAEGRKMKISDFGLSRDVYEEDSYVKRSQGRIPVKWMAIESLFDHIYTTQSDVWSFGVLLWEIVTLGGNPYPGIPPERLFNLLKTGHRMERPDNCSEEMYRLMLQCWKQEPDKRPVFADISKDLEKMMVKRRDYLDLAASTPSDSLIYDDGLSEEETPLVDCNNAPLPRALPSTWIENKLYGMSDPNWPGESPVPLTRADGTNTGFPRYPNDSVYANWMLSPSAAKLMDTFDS
How it was run: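 Cells plated overnight, then exposed to compound dilutions in DMSO/medium at 37° C, 5% CO2 for 72 to 144 hours. Viability read by CellTiter-Glo luminescence; IC50 from inhibition rates fitted by nonlinear regression.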

[1] = Balb/C mouse pharmacokinetics, oral 5 mg/kg; assay type: in vivo, Balb/C mice; details: male, p.o. 5 mg/kg, plasma; for MRT: read-out: Average residence time MRT; for Cmax: read-out: Blood concentration Cmax; for AUC(0-t): read-out: Curve area AUC0-t; for AUC(0-inf): read-out: Curve area AUC0-∞; for half-life: read-out: Half-life t1/2 (converted); for Tmax: read-out: Peak time tmax
How it was run: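 Male Balb/C mice (6 per compound) were fasted overnight and dosed in 0.5% CMC-Na (1% Tween80) solution or suspension. EDTA-K2 plasma was sampled at 0, 0.5, 1, 2, 4, 6, 8 and 24 h. Compound levels were measured by LC/MS/MS after acetonitrile precipitation, and PK parameters were derived from the plasma profiles.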

[2] = system: subcutaneous transplanted tumor of Ba/F3 KIF5B-RET cells; test: Tumor suppression on Ba/F3 KIF5B-RET transplanted tumor model; assay type: in vivo, BALB/c nude mice
Method: Ba/F3 KIF5B-RET cells were removed from the cell bank, resuscitated and added to RPMI1640 medium (RPMI1640+10% FBS+1% Glu+1% P/S), then cultured in a CO2 incubator (incubator temperature was 37° C., CO2 concentration was 5%), and when the cell number expanded to the required number for in vivo inoculation, Ba/F3 KIF5B-RET cells were collected. The cells were counted with an automatic cell counter, resuspended with PBS according to the count results, made into a cell suspension (density was 2×10^7/mL), and placed in an ice box for use.
Female BALB/c nude mice aged 6-8 weeks were used, weighing about 18-22 g. Mice were reared in SPF animal room, and were reared in a single cage with 5 mice in each cage. All cages, bedding and water were sterilized at high temperature before use, and all animals were allowed to eat and drink freely. Nude mice were labeled with disposable universal ear tags for mice and rats before the start of the experiment, and the skin of the inoculation site was disinfected with 75% medical alcohol before inoculation. 0.1 mL (containing 2*10^6 cells) of Ba/F3 KIF5B-RET cells were inoculated subcutaneously on the right back of each mouse. Group administration was initiated when the tumor volume reached 60-200 mm^3, with 5 mice in each group. Each test compound was administered orally twice a day for 14 days. The tumor volume and the weight of mice were measured twice a week, and the tumor TGI (%) was calculated.
The tumor volume (mm^3) was calculated as V=0.5*D*d*d, where D and d were the long and short diameters of the tumor, respectively.
When there was no tumor regression, TGI (%)=[(1-(mean tumor volume at the end of the administration in a treatment group−mean tumor volume at the start of administration in the treatment group))/(mean tumor volume at the end of treatment in the solvent control group−mean tumor volume at the start of treatment in the solvent control group)]×100%.
When there was tumor regression, TGI (%)=[1-(mean tumor volume at the end of administration in a treatment group−mean tumor volume at the beginning of administration in the treatment group)/mean tumor volume at the beginning of administration in the treatment group]×100%.

T1 sequence (P07949 29-1114 V804M): as the sequence (P07949 29-1114 V804L) above, with L776M counted along it

COc1ccc(CN2C3CC2CN(c2ccc(-c4cc(N5CC(C)(C#N)C5)cn5ncc(C#N)c45)cn2)C3)cn1 [Embodiment 77, 6-(3-Cyano-3-methylazetidin-1-yl)-4-(6-(6-((6-methoxypyridin-3-yl)methyl)-3,6-diazabicyclo[3.1.1]heptan-3-yl)pyridin-3-yl)pyrazolo[1,5-a]pyridine-3-carbonitrile]
IC50 (RET V804M): 0.6 nM
IC50 (RET V804L): 0.49 nM
IC50 (RET kinase): 0.37 nM
IC50 (Ba/F3 KIF5B-RET cells): 4.79 nM
MRT [1]: 6 h
Cmax [1]: 4680 ng/mL
AUC(0-t) [1]: 51600 ng·h/mL
AUC(0-inf) [1]: 51900 ng·h/mL
half-life [1]: 3.2 h
Tmax [1]: 0.5 h
Tumor volume (Mean ± SD) Day 0 ([2]; 10 mg/kg oral twice a day): 101.59 ± 36.86 mm^3
TGI (%) Day 14 ([2]; 10 mg/kg oral twice a day): 159.80%
Tumor volume (Mean ± SD) Day 14 ([2]; 10 mg/kg oral twice a day): 40.84 ± 53.92 mm^3

C#C[C@](C)(O)COc1cc(-c2ccc(N3CC4CC(C3)N4Cc3ccc(OC)nc3)nc2)c2c(C#N)cnn2c1 [Embodiment 64, 6-(((S)-2-hydroxy-2-methylbut-3-yn-1-yl)oxy)-4-(6-(6-((6-methoxypyridin-3-yl)methyl)-3,6-diazabicyclo[3.1.1]heptan-3-yl)pyridin-3-yl)pyrazolo[1,5-a]pyridine-3-carbonitrile]
IC50 (RET V804M): 3 nM
IC50 (RET V804L): 0.23 nM
IC50 (RET kinase): 0.38 nM
IC50 (Ba/F3 KIF5B-RET cells): 22.6 nM
MRT [1]: 2.7 h
Cmax [1]: 3920 ng/mL
AUC(0-t) [1]: 14500 ng·h/mL
AUC(0-inf) [1]: 14500 ng·h/mL
half-life [1]: 1.2 h
Tmax [1]: 1 h
Tumor volume (Mean ± SD) Day 0 ([2]; 10 mg/kg oral twice a day): 126.93 ± 16.98 mm^3
TGI (%) Day 14 ([2]; 10 mg/kg oral twice a day): 88.39%
Tumor volume (Mean ± SD) Day 14 ([2]; 10 mg/kg oral twice a day): 330.85 ± 147.00 mm^3

COc1ncc(CN2C3CC2CN(c2ccc(-c4cc(C#CC(C)(C)O)cn5ncc(C#N)c45)cn2)C3)cc1F [Embodiment 18, 4-(6-(6-((5-Fluoro-6-methoxypyridin-3-yl)methyl)-3,6-diazabicyclo[3.1.1]heptan-3-yl)pyridin-3-yl)-6-(3-hydroxy-3-methylbut-1-yn-1-yl)pyrazolo[1,5-a]pyridine-3-carbonitrile]
IC50 (RET V804M): 1.8 nM
IC50 (RET V804L): 0.74 nM
IC50 (RET kinase): 0.31 nM
IC50 (Ba/F3 KIF5B-RET cells): 22.6 nM
MRT [1]: 4.61 h
Cmax [1]: 2790 ng/mL
AUC(0-t) [1]: 18200 ng·h/mL
AUC(0-inf) [1]: 18200 ng·h/mL
half-life [1]: 2.9 h
Tmax [1]: 0.5 h
Tumor volume (Mean ± SD) Day 0 ([2]; 30 mg/kg oral twice a day): 132.34 ± 19.40 mm^3
TGI (%) Day 14 ([2]; 30 mg/kg oral twice a day): 110.35%
Tumor volume (Mean ± SD) Day 14 ([2]; 30 mg/kg oral twice a day): 118.64 ± 84.34 mm^3

C#C[C@@](C)(O)COc1cc(-c2ccc(N3CC4CC(C3)N4Cc3ccc(OC)nc3)nc2)c2c(C#N)cnn2c1 [Embodiment 63, 6-(((R)-2-hydroxy-2-methylbut-3-yn-1-yl)oxy)-4-(6-(6-((6-methoxypyridin-3-yl)methyl)-3,6-diazabicyclo[3.1.1]heptan-3-yl)pyridin-3-yl)pyrazolo[1,5-a]pyridine-3-carbonitrile]
IC50 (RET V804M): 0.6 nM
IC50 (RET V804L): 0.24 nM
IC50 (RET kinase): 0.34 nM
IC50 (Ba/F3 KIF5B-RET cells): 11.1 nM
MRT [1]: 2.9 h
Cmax [1]: 2940 ng/mL
AUC(0-t) [1]: 11000 ng·h/mL
AUC(0-inf) [1]: 11000 ng·h/mL
half-life [1]: 1.3 h
Tmax [1]: 1 h
Tumor volume (Mean ± SD) Day 0 ([2]; 10 mg/kg oral twice a day): 126.13 ± 17.24 mm^3
TGI (%) Day 14 ([2]; 10 mg/kg oral twice a day): 94.66%
Tumor volume (Mean ± SD) Day 14 ([2]; 10 mg/kg oral twice a day): 219.86 ± 64.31 mm^3
